Where a name gives a salt, the structure may show the parent alone.
Target: Pdr5 (Saccharomyces cerevisiae, UniProt P33302, A666G)
Assay: inhibition of R6G transport in whole cells
Assay type: cell-based

Sequence of Pdr5 (P33302 whole entry A666G): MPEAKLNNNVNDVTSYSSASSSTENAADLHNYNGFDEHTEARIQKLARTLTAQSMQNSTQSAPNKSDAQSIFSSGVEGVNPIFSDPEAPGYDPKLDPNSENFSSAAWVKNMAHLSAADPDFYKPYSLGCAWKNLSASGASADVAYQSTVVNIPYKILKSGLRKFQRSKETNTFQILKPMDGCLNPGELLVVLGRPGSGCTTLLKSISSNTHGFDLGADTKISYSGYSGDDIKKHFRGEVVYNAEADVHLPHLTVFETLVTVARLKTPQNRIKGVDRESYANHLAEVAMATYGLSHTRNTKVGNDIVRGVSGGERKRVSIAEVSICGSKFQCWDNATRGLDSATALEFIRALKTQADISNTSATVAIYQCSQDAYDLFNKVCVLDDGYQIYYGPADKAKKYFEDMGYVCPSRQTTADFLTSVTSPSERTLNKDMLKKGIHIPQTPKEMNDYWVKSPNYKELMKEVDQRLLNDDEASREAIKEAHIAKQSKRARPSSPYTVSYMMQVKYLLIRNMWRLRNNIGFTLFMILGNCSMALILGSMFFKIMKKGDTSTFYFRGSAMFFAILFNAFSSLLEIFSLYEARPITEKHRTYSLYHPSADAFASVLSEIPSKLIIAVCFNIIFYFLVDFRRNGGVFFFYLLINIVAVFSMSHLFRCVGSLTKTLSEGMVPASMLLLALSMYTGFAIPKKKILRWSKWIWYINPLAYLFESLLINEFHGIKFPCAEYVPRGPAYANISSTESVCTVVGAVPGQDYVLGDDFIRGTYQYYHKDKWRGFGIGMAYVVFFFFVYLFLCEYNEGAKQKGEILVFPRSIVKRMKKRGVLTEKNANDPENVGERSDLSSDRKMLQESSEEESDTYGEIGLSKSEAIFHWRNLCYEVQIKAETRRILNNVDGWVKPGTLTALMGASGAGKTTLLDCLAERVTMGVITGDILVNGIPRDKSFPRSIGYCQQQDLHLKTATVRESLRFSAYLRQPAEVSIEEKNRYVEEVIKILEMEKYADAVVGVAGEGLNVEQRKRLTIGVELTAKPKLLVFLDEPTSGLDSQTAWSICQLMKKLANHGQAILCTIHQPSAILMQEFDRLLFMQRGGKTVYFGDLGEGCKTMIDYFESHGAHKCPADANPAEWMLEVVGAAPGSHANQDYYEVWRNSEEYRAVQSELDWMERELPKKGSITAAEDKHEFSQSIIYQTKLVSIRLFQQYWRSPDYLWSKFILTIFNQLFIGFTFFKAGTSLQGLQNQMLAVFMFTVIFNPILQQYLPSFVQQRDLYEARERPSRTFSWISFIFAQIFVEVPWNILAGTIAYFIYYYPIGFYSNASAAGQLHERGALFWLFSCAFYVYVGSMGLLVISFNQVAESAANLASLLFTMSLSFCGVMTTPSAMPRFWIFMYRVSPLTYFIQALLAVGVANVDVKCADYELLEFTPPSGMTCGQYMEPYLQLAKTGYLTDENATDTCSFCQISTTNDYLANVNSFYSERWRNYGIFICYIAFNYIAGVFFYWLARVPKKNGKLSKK

## C=CCOC(Cn1ccnc1)c1ccc(Cl)cc1Cl (stereo not shown) [imazalil sulfate]
  IC50: ~100 µM

Reference: paper PMC6800772 (Molecular microbiology, 2019)
